Experimental data as given in patent US20080287375A1, “Selective Glycosidase Inhibitors, Methods of Making Inhibitors, and Uses Thereof” (SIMON FRASER UNIVERSITY, priority 2005, published 2008).
“Also recorded” adds a separate entry of the source. Marks after values point to notes of the source that are not given here.

How the values were obtained:
[1] = biological target: T1, O-GlcNAcase (Homo sapiens, UniProt O60502); test: Inhibition of O-GlcNAcase, substrate pNP-GlcNAc, Dixon plots; details: for Selectivity Ratio (β-Hexosaminidase KI/O-GlcNAcase KI): Table 3
T1 sequence (O60502 1-916): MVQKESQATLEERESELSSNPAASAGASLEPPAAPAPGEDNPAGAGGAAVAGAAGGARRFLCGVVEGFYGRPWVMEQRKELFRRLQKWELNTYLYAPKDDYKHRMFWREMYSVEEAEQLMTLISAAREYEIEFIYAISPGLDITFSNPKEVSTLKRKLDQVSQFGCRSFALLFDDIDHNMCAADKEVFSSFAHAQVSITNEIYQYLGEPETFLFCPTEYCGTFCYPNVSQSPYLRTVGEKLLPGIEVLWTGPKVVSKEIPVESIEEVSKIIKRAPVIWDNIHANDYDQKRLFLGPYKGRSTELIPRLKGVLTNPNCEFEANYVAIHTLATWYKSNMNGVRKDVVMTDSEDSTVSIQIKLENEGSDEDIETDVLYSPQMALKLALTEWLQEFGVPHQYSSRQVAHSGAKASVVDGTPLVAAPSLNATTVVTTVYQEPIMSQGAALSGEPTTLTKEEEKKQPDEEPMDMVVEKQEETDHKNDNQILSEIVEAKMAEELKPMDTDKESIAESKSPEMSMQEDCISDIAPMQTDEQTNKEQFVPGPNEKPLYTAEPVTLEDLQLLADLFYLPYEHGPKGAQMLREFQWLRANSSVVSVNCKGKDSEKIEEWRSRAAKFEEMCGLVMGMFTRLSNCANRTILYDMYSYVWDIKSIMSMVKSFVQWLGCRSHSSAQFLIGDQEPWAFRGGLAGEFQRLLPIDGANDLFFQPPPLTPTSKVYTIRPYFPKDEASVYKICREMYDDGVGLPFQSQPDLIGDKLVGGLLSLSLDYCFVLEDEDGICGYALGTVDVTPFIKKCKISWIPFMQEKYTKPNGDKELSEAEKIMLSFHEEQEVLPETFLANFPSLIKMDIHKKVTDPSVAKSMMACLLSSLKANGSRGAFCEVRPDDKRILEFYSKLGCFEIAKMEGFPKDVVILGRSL

[2] = biological target: human placental β-hexosaminidase; test: Inhibition of β-hexosaminidase, substrate pNP-GlcNAc, Dixon plots; details: for Ki: read-out: β-Hexosaminidase KI, Table 3, substrate pNP-GlcNAc 0.5 mM, pH 4.25
[3] = biological target: T1, O-GlcNAcase; details: for Selectivity Ratio (β-Hex KI/O-GlcNAcase KI): Table 2
[4] = biological target: T1, O-GlcNAcase; test: biochemical
[5] = biological target: human placental β-hexosaminidase; test: Inhibition of β-hexosaminidase, substrate MU-GlcNAc (5), Dixon plots
[6] = biological target: T1, O-GlcNAcase; test: Michaelis-Menten kinetics of O-GlcNAcase catalyzed hydrolysis of 4-methylumbelliferyl GlcNAc substrate analogues; type: biochemical; details: 37° C., pH 6.5
From the text: For O-GlcNAcase the value of Vmax[E]0/KM is also dependant on the extent of fluorine substitution but the slope is more shallow (ρ=−0.42±0.08, FIG. 2C).

[7] = test system: O-GlcNAc modified proteins in rat tissues; test: Oral availability: tissue O-GlcNAc levels in rats fed inhibitor in chow; type: in vivo
Experimental: To determine if the inhibitor 9c is orally available, it was incorporated into the chow (Lab Diet 5001 Rodent Diet, PMI Nutrition International, LLC). To make the rat chow, 600 g of the ground chow was mixed with 355 ml of water and 5 μL of the inhibitor dissolved in ethanol. Small pieces were then prepared with a pasta machine (Pasta Express, Creative) and dehydrated overnight at 37° C. (Snackmaster Dehydrator, American Harvest). Five sets of chow were made with the following amounts of inhibitor: 0 mg kg^−1 days^−1, 100 or 1000 mg kg^−1 days^−1 of the deprotected (polar) inhibitor, and 100 or 1000 mg kg^−1 day^−1 of the protected (non-polar) inhibitor. […] Ten five-week old healthy Sprague-Dawley rats (two per set of food) were then allowed to feed on the rat chow for three days. The animals were then sacrificed and tissues were collected, homogenized, and analyzed as described above.

[8] = test system: human β-hexosaminidase; test: Michaelis-Menten kinetics of β-hexosaminidase catalyzed hydrolysis of 4-methylumbelliferyl GlcNAc substrate analogues; type: biochemical; details: 37° C., pH 4.25
From the text: These compounds were first tested with the lysosomal human β-hexosamindase since this enzyme is known to proceed via a mechanism involving anchimeric assistance (FIG. 2A). Although Michaelian saturation kinetics were not observed for all substrates (Table 1), Vmax[E]o/KM, which is proportional to the second order rate constant governing the enzyme catalyzed reaction, could be determined from the initial slope of the Michaelis-Menten plot (FIG. 2A Inset). […] As expected, decreasing the basicity of the carbonyl oxygen has a deleterious effect on catalysis.

[9] = read-out: KI, β-hexosaminidase, human lysosomal β-hexosaminidase
[10] = read-out: β-Hexosaminidase KI, Table 2, substrate 5 at 0.64 mM, pH 4.25, Dixon plots
[11] = rats fed inhibitor in food for three days

CC(C)CC(=O)N[C@H]1C(=NOC(=O)Nc2ccccc2)O[C@H](CO)[C@@H](O)[C@@H]1O [Compound 22f, O-(2-deoxy-2-isovaleramido-D-glucopyranosylidene)amino N-Phenylcarbamate] was tested, and the Ki [1] was 190 µM, the “Selectivity Ratio (β-Hexosaminidase KI/O-GlcNAcase KI)” value [1] was “≧6” and the Ki [2] was over 1200 µM.

For CC(=O)N[C@H]1C(O)O[C@H](CO)[C@@H](O)[C@@H]1O (stereo partly shown) [GlcNAc, N-acetylglucosamine, reference compound], the “Selectivity Ratio (β-Hex KI/O-GlcNAcase KI)” value [3] was 0.8, the Ki [4] was 1500 µM and the Ki [5, 9] was 1200 µM. For the same compound, the Ki [5, 10] was 1200 µM.

With CCCCCC1=N[C@@H]2[C@@H](O)[C@H](O)[C@@H](CO)O[C@@H]2S1 [Compound 9e, 1,2-dideoxy-2′-pentyl-α-D-glucopyranoso-[2,1-d]-Δ2′-thiazoline] the “Selectivity Ratio (β-Hex KI/O-GlcNAcase KI)” value [3] was 100, the Ki [4] was 57 µM and the Ki [5, 10] was 11000 µM.

In the case of Cc1cc(=O)oc2cc(O[C@@H]3O[C@H](CO)[C@@H](O)[C@H](O)[C@H]3NC(=O)C(F)F)ccc12 [MuGlcNAc-F2, 4-Methylumbelliferyl 2-deoxy-2-difluoroacetamido-β-D-glucopyranoside], the Km [6] is reported as 450 ± 50 µM and the “Vmax [E]o” value [6] is reported as 0.16 ± 0.01 µmol/min/mg.

CC(=O)N[C@H]1/C(=N/OC(=O)Nc2ccccc2)O[C@H](CO)[C@@H](O)[C@@H]1O [PUGNAc, O-(2-acetamido-2-deoxy-D-glucopyranosylidene)amino N-phenylcarbamate] showed a Ki [2] of 0.036 µM, a Ki [5, 9] of 0.036 µM and a Ki [5, 10] of 0.036 µM.

With CCCCC1=N[C@@H]2[C@@H](O)[C@H](O)[C@@H](CO)O[C@@H]2S1 [Compound 9d, 1,2-dideoxy-2′-butyl-α-D-glucopyranoso-[2,1-d]-Δ2′-thiazoline] the “selectivity ratio for O-GlcNAcase over β-hexosaminidase” value [3] was 3100 fold, the “Selectivity Ratio (β-Hex KI/O-GlcNAcase KI)” value [3] was 3100 and the Ki [4] was 1.5 µM. For the same compound, the Ki [5, 10] was 4600 µM.

With Cc1cc(=O)oc2cc(O[C@@H]3O[C@H](CO)[C@@H](O)[C@H](O)[C@H]3NC(=O)C(F)(F)F)ccc12 [MuGlcNAc-F3, 4-Methylumbelliferyl 2-deoxy-2-trifluoroacetamido-β-D-glucopyranoside] the Km [6] was 380 ± 30 µM and the “Vmax [E]o” value [6] was 0.033 ± 0.001 µmol/min/mg.

CC(C)C1=N[C@@H]2[C@@H](O)[C@H](O)[C@@H](CO)O[C@@H]2S1 [Compound 9f, 1,2-dideoxy-2′-isopropyl-α-D-glucopyranoso-[2,1-d]-Δ2′-thiazoline] was tested, and the “inhibition of O-GlcNAcase, in words” value [3] was “good inhibitors; also recorded: potent inhibitors”, the “selectivity for O-GlcNAcase over β-hexosaminidase, in words” value [3] was “remarkable selectivity” and the “selectivity ratio for O-GlcNAcase over β-hexosaminidase” value [3] was 700 fold. The “Selectivity Ratio (β-Hex KI/O-GlcNAcase KI)” value [3] was 700, the Ki [4] was 1.6 µM and the Ki [5, 10] was 720 µM.

In the case of CCCCC(=O)NC1C(=NOC(=O)Nc2ccccc2)OC(CO)C(O)C1O (stereo not shown) [Compound 22c], the Ki [1] is reported as 40 µM, the “Selectivity Ratio (β-Hexosaminidase KI/O-GlcNAcase KI)” value [1] is reported as 6 and the Ki [2] is reported as 220 µM.

CCCC(=O)N[C@H]1C(=NOC(=O)Nc2ccccc2)O[C@H](CO)[C@@H](O)[C@@H]1O [Compound 22b, O-(2-deoxy-2-butamido-D-glucopyranosylidene)amino N-Phenylcarbamate] was tested, and the Ki [1] was 2.4 µM, the “Selectivity Ratio (β-Hexosaminidase KI/O-GlcNAcase KI)” value [1] was 11 and the Ki [2] was 26 µM.

With CCCCCC(=O)N[C@H]1C(=NOC(=O)Nc2ccccc2)O[C@H](CO)[C@@H](O)[C@@H]1O [Compound 22d, O-(2-deoxy-2-hexamido-D-glucopyranosylidene)amino N-Phenylcarbamate] the Ki [1] was 210 µM, the “Selectivity Ratio (β-Hexosaminidase KI/O-GlcNAcase KI)” value [1] was “≧5” and the Ki [2] was over 900 µM.

For CCC1=N[C@@H]2[C@@H](O)[C@H](O)[C@@H](CO)O[C@@H]2S1 [Compound 9b, 1,2-dideoxy-2′-ethyl-α-D-glucopyranoso-[2,1-d]-Δ2′-thiazoline], the “inhibition of O-GlcNAcase, in words” value [3] was “potent inhibitors”, the “selectivity for O-GlcNAcase over β-hexosaminidase, in words” value [3] was “remarkable selectivity” and the “Selectivity Ratio (β-Hex KI/O-GlcNAcase KI)” value [3] was 270. For the same compound, the Ki [4] was 0.12 µM, the “increase in KI for β-hexosaminidase compared to parent NAG-thiazoline (9a)” value [5] was 460 fold and the Ki [5, 10] was 32 µM.

With CCCC1=N[C@@H]2[C@@H](OC(C)=O)[C@H](OC(C)=O)[C@@H](COC(C)=O)O[C@@H]2S1 [9c (protected), 3,4,6-tri-O-acetyl-1,2-dideoxy-2′-propyl-α-D-glucopyranoso-[2,1-d]-Δ2′-thiazoline] the “cellular levels of O-GlcNAc modified proteins in brain tissue, oral 100 mg/kg/day” value ([7]; rats fed inhibitor in chow for three days) was “marked increases”, the “cellular levels of O-GlcNAc modified proteins in brain tissue, oral 1000 mg/kg/day” value ([7]; rats fed inhibitor in chow for three days, compared with 100 mg/kg/day) was “even greater” and the “O-GlcNAc modified proteins in brain, muscle, pancreas, fat and spleen, oral 100 mg kg^−1 day^−1 (FIG. 12 legend)” value [7, 11] was “large increases”. For the same compound, the “O-GlcNAc modified proteins in tissues, oral 1000 mg kg^−1 days^−1 (FIG. 12 legend)” value [7, 11] was “slightly greater increases”.

In the case of CC(C)C(=O)N[C@H]1C(=NOC(=O)Nc2ccccc2)O[C@H](CO)[C@@H](O)[C@@H]1O [Compound 22e, O-(2-deoxy-2-isobutamido-D-glucopyranosylidene)amino N-Phenylcarbamate], the Ki [1] is reported as 9 µM, the “Selectivity Ratio (β-Hexosaminidase KI/O-GlcNAcase KI)” value [1] is reported as 2 and the Ki [2] is reported as 20 µM.

In the case of Cc1cc(=O)oc2cc(O[C@@H]3O[C@H](CO)[C@@H](O)[C@H](O)[C@H]3NC(=O)CF)ccc12 [MuGlcNAc-F1, 4-Methylumbelliferyl 2-deoxy-2-fluoroacetamido-β-D-glucopyranoside], the Km [8] is reported as 3800 ± 400 µM, the “Vmax [E]o” value [8] is reported as 3.3 ± 0.2^b μmol min^−1 mg^−1 and the Km [6] is reported as 490 ± 60 µM. The “Vmax [E]o” value [6] was 0.60 ± 0.03 µmol/min/mg.

In the case of CC(=O)N[C@H]1[C@H](Oc2ccc3c(C)cc(=O)oc3c2)O[C@H](CO)[C@@H](O)[C@@H]1O [MuGlcNAc, reference compound], the Km [8] is reported as 880 ± 50 µM, the “Vmax [E]o” value [8] is reported as 8.3 ± 0.2 µmol/min/mg and the Km [6] is reported as 430 ± 40 µM. For the same compound, the “Vmax [E]o” value [6] was 0.74 ± 0.02 µmol/min/mg.

In the case of CCC(=O)N[C@H]1C(=NOC(=O)Nc2ccccc2)O[C@H](CO)[C@@H](O)[C@@H]1O [Compound 22a], the Ki [1] is reported as 1.2 µM, the “Selectivity Ratio (β-Hexosaminidase KI/O-GlcNAcase KI)” value [1] is reported as 1 and the “increase in KI for β-hexosaminidase compared to parent PUGNAc” value [2] is reported as 33 fold. It also gave a Ki [2] of 1.2 µM.
